Assay results taken from US8436159B2, “Glyphosate resistant class I 5-endolpyruvylshikimate-3-phosphate synthase (EPSPS)” (Monsanto Technology LLC, priority 2003, dated 2013).
Substitutions are numbered along the chain they refer to.

Tests used:
[1] = molecular target: T1, maize (Zea mays) class I EPSPS variant TIPA (T102I, P106A), pMON42481, ZmTIPA SEQ ID NO:39 (Zea mays, UniProt O24566, P106A/T102I); test: EPSPS steady-state kinetics, TIPA variant; assay type: biochemical
T1 construct: pMON42481
T1 sequence (O24566 1-444 T102I/P106A): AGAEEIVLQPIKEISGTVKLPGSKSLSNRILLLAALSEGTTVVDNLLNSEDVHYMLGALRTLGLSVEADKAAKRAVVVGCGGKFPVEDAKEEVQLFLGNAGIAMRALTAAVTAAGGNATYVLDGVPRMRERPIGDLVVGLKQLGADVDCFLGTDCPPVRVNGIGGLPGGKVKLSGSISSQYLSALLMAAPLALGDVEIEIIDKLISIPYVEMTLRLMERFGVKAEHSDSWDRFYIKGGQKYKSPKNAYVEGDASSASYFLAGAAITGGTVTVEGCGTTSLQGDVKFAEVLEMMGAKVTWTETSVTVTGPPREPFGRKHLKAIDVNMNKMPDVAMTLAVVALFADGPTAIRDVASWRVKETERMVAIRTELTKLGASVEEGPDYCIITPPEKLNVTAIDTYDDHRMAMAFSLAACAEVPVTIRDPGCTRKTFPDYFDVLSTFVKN
Source text: (§1) The double variants of the present invention were made using pMON58452 (FIG. 5) as the template. This pMON58452 EPSPS gene template contains the maize EPSPS double variant T102I, P106T (TIPT) that was constructed by mutagenesis of pMON70467 with the mutagenesis primers mEmut-9-U and mEmut-10-L. The various mutagenesis primer sequences were designed and then were synthesized by Invitrogen Corp., Custom Primers and used in combination in a PCR to create the variant EPSPS coding sequences. The PCR was set up in a 50 μl reaction in the following manner: dH2O 38 μl; 2 mM dNTP 1 μL; 10× buffer 5 μL; pMON58452 1 μL (10 ng); primer-U 2 μL; primer-L 2 μL; pfu Turbo enzyme 1 μL. PCR was carried out on a MJ Research PTC-200 thermal cycler using the following program: Step 1—94° C. for 30 seconds; Step 2—94° C. for 30 seconds; Step 3—55° C. for 1 minute; Step 4—68° C. for 14 minute; Step 5—go to step 2, 16 times; Step 6—End. At the end of the PCR, 1 μl of the restriction enzyme DpnI was added to each 50 μl of PCR reaction and the mixture was incubated at 37° C. for 1 hour. […]

[2] = test system: E. coli EPSPS, native; settings: native enzyme; read-out: apparent Ki for glyphosate; cited from earlier work
[3] = molecular target: T2, maize (Zea mays) class I EPSPS variant TIPT (T102I, P106T), pMON58452, ZmTIPT SEQ ID NO:38 (Zea mays, UniProt O24566, P106T/T102I); test: EPSPS steady-state kinetics, TIPT variant; assay type: biochemical
T2 construct: pMON58452
T2 sequence (O24566 1-444 T102I/P106T): T1 sequence (O24566 1-444 T102I/P106A) with A106T
Source text: as §1

Q: For O=C(O)CNCP(=O)(O)O [glyphosate, N-phosphonomethylglycine], which Ki [1] is on record?
A: 148 ± 18.3 µM

Q: What about the Ki [2] of the same molecule?
A: 500 nM

Q: What about the Ki [3] of the same molecule?
A: 101 ± 12.7 µM
